The results in this text go back to patent US10556888B2, “Pyrazole compounds or salts thereof, preparation methods therefor, herbicidal compositions and use thereof” (QINGDAO KINGAGROOT CHEMICAL COMPOUNDS CO., LTD, priority 2015, dated 2020).

What all share (format): in vivo
For one series, the system named is Corn. In words: Control experiment, test in post-emergence stage, crop safety. Also noted: key: Level 10: completely dead; Level 9: above 90% growth inhibition rate; Level 8: above 80% growth inhibition rate; Level 7: above 70% growth inhibition rate; Level 6: above 60% growth inhibition rate; Level 5: above 50% growth inhibition rate; Level 4: above 30% growth inhibition rate; Level 3: above 20% growth inhibition rate; Level 2: above 10% growth inhibition rate; Level 1: above 1-10% growth inhibition rate; Level 0: no effect. As to conditions: 5-6 leaf stage, 15 g/ha, observe time 25 day. As to the method: (§1) Test in post-emergence stage: seeds of monocotyledonous weeds and corn were put into a plastic pot loaded with soil, covered with 0.5-2 cm soil, and allowed to grow in good greenhouse environment. The test plants were treated at 5-6 leaf stage 4 weeks after sowing. The test compounds of the present invention were dissolved with acetone respectively, then added with tween 80, diluted by a certain amount of water to reach a certain concentration. The solution was sprayed to the plants by a spray tower. The test application rate was 15 g/ha and the observe time was 25 day.

For series [1], the system named is main crop (wheat, corn, rice, soybean, cotton, oilseed, millet and sorghum). In words: Post-emergence test experiment, main crops (Table 2). Also noted: key: Level 10: completely dead; Level 9: above 90% growth inhibition rate; Level 8: above 80% growth inhibition rate; Level 7: above 70% growth inhibition rate; Level 6: above 60% growth inhibition rate; Level 5: above 50% growth inhibition rate; Level 4: above 30% growth inhibition rate; Level 3: above 20% growth inhibition rate; Level 2: above 10% growth inhibition rate; Level 1: above 1-10% growth inhibition rate; Level 0: no effect. As to conditions: 15 g/ha, 3 weeks after spraying, greenhouse. In short, it runs like this:
(§2)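 Compounds, dissolved in acetone, mixed with Tween 80 and diluted in water, were sprayed post-emergence onto greenhouse-grown weeds and crops at the 2-3 leaf stage (2-3 weeks post-sowing). Plants then grown 3 more weeks in the greenhouse before evaluation.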

In another series the test system is Echinochloa crus-galli. Kind of series: Control experiment, test in post-emergence stage. As to conditions: 5-6 leaf stage, 15 g/ha, observe time 25 day. Also noted: key: Level 10: completely dead; Level 9: above 90% growth inhibition rate; Level 8: above 80% growth inhibition rate; Level 7: above 70% growth inhibition rate; Level 6: above 60% growth inhibition rate; Level 5: above 50% growth inhibition rate; Level 4: above 30% growth inhibition rate; Level 3: above 20% growth inhibition rate; Level 2: above 10% growth inhibition rate; Level 1: above 1-10% growth inhibition rate; Level 0: no effect. As to the method:
as §1

Another series deals with Setaria viridis. Kind of series: Control experiment, test in post-emergence stage. Also noted: key: Level 10: completely dead; Level 9: above 90% growth inhibition rate; Level 8: above 80% growth inhibition rate; Level 7: above 70% growth inhibition rate; Level 6: above 60% growth inhibition rate; Level 5: above 50% growth inhibition rate; Level 4: above 30% growth inhibition rate; Level 3: above 20% growth inhibition rate; Level 2: above 10% growth inhibition rate; Level 1: above 1-10% growth inhibition rate; Level 0: no effect. As to conditions: 5-6 leaf stage, 15 g/ha, observe time 25 day. As to the method: as §1

In a further series the test system is Digitaria sanguinalis. In words: Control experiment, test in post-emergence stage. As to conditions: 5-6 leaf stage, 15 g/ha, observe time 25 day. Also noted: key: Level 10: completely dead; Level 9: above 90% growth inhibition rate; Level 8: above 80% growth inhibition rate; Level 7: above 70% growth inhibition rate; Level 6: above 60% growth inhibition rate; Level 5: above 50% growth inhibition rate; Level 4: above 30% growth inhibition rate; Level 3: above 20% growth inhibition rate; Level 2: above 10% growth inhibition rate; Level 1: above 1-10% growth inhibition rate; Level 0: no effect. Here is the method: as §1

Series [2] concerns Monocotyledonous and dicotyledonous weed. In words: Post-emergence test experiment, weed control effect (Table 2). More on the design: key to weed control effect, Setaria viridis (level) / weed control effect, Rorippa indica (level) / weed control effect, Abutilon theophrasti (level) / weed control effect, Echinochloa crus-galli (level) / weed control effect, Digitaria sanguinalis (level): Level 10: completely dead; Level 9: above 90% growth inhibition rate; Level 8: above 80% growth inhibition rate; Level 7: above 70% growth inhibition rate; Level 6: above 60% growth inhibition rate; Level 5: above 50% growth inhibition rate; Level 4: above 30% growth inhibition rate; Level 3: above 20% growth inhibition rate; Level 2: above 10% growth inhibition rate; Level 1: above 1-10% growth inhibition rate; Level 0: no effect. As to conditions: 15 g/ha, 3 weeks after spraying, greenhouse. In short, it runs like this: as §2

Series [3] has as its system Echinochloa crus-galli, Scirpus juncoides and Monochoria vaginalis. Kind of series: Resistance tests on the collected weed seeds. As to conditions: common rate; seeds collected from Heilongjing and Jiangsu Province of China. An excerpt:
The seeds of Echinochloa crus-galli, Scirpus juncoides and Monochoria vaginalis were collected from Heilongjing and Jiangsu Province of China.

`Cc1nn(C)cc1C(=O)Oc1c(C(=O)c2ccc(S(C)(=O)=O)c(COCC(F)(F)F)c2Cl)c(C)nn1C` [Compound 29]: in the series on Corn, the “Corn (safety, activity level)” value amounted to 0. Moreover, in series [1], the “effect on crop, corn (level)” value worked out at 0; the “effect on crop, rice (level)” value is given as 3 (Level 3: above 20% growth inhibition rate); the “effect on crop, wheat (level)” value was 0. For the same compound, in the series with Echinochloa crus-galli, the “Echinochloa crus-galli (activity level)” value is recorded as 8 (Level 8: above 80% growth inhibition rate). Moreover, in the series on Setaria viridis, the “Setaria viridis (activity level)” value is given as 9 (Level 9: above 90% growth inhibition rate). Further, the “Digitaria sanguinalis (activity level)” value with Digitaria sanguinalis stood at 10. In series [2], the “weed control effect, Abutilon theophrasti (level)” value is recorded as 8 (Level 8: above 80% growth inhibition rate); the “weed control effect, Bidens pilosa (level)” value was 5 (Level 5: above 50% growth inhibition rate); the “weed control effect, Digitaria sanguinalis (level)” value is given as 9 (Level 9: above 90% growth inhibition rate); the “weed control effect, Echinochloa crus-galli (level)” value is recorded as 8 (Level 8: above 80% growth inhibition rate). Also, in series [2], the “weed control effect, Rorippa indica (level)” value is 4 (Level 4: above 30% growth inhibition rate) and the “weed control effect, Setaria viridis (level)” value was 10.
`CCOC(=O)c1cnn(C)c1S(=O)(=O)NC(=O)Nc1nc(OC)cc(OC)n1` [pyrazosulfuron-ethyl]: the “Resistance of the weeds to the herbicide” value in series [3] is listed as “resistant”.
